We go through 2 molecules from patent US20260365618A1 (priority 2022, published 2026).

The subject of the assay is F. tularensis subsp. holarctica. Put plainly: microbe, parasite or virus in culture. The assay is classed as cell-based, Francisella tularensis subsp. holarctica. The following applies: Francisella tularensis, 48 h.

In brackets after ≈: the same amount, converted by molar mass.

`C=C[C@]1(C)C[C@@H](OC(=O)CS[C@@H]2CC[C@@H](N)C[C@H]2O)[C@]2(C)[C@H](C)CC[C@]3(CCC(=O)[C@H]32)[C@@H](C)[C@@H]1O` [Lefamulin, 14-O-{[(1R, 2R, 4R)-4-amino-2-hydroxy-cyclohexylsulfanyl]-acetyl}-mutilin] showed an MIC50 of 4 µg/mL (≈ 7.88 µM). Under “read-out: MIC Range”, the MIC was in the range of 0.5 to 8 µg/mL (≈ 0.985 to 15.8 µM).

In the case of `CC[C@H]1OC(=O)[C@H](C)[C@@H](O[C@H]2C[C@@](C)(OC)[C@@H](O)[C@H](C)O2)[C@H](C)[C@@H](O[C@@H]2O[C@H](C)C[C@H](N(C)C)[C@H]2O)[C@](C)(O)C[C@@H](C)C(=O)[C@H](C)[C@@H](O)[C@]1(C)O` [Erythromycin], the MIC50 stood at 8 µg/mL (≈ 10.9 µM).
